Test results: patent publication US4920128A, “Pyrazolo[3,4-b]quinolines and their use as antiviral agents” (Sterling Drug Inc., priority 1988, dated 1990)
≈ marks a conversion by molar mass, not a printed value.

Legend:
[1] = tested on: herpes simplex virus type 2 (HSV-2); experiment: HSV-2 plaque-reduction on mouse embryo fibroblast monolayers; type: cell-based; settings: concentration which inhibited the number of plaques by 50%, interpolated, HSV-2 (Curtis strain), ~80 pfu, 2 days at 37° C.; for IC50: Human alphaherpesvirus 2, Fibroblast, 48 h, read-out: MIC
Description: The activity of the compounds of the invention against herpes simplex virus type 2 (HSV-2) was determined by measuring plaque-reduction activity on mouse embryo fibroblast monolayers. Two-day-old monolayers of Balb/c or ICR mouse embryo fibroblasts (MEF) were infected with approximately 80 pfu (plaque forming units) of HSV-2 (Curtis strain) in the presence of various concentrations of the test compounds. After a 1 hour absorption period at 37° C. and 2% CO2, the inoculum was removed and an overlay containing equal parts of 2X MS medium supplemented with 10% fetal calf serum (FSC) and 1% molten Seakem agarose was added to cell monolayers. Both the inocula and the overlay mixtures contained 1:200 dilutions of the test compound made from stock dilutions in dimethylsulfoxide. After incubation at 37° C. and 2% CO2 for 2 days, the monolayers were fixed with 5% glutaraldehyde and stained with 0.25% aqueous crystal violet. The plaques were quantitated by visual inspection. The minimum inhibitory concentration (MIC) for a compound was defined as the concentration in micrograms per milliliter (μg/ml) which inhibited the number of plaques by 50%. The MIC was calculated by interpolation.

[2] = tested on: phenylephrine-contracted aortic ring preparation; experiment: vasodilator activity in phenylephrine-contracted aortic ring preparation from the spontaneously hypertensive rat (SHR); settings: 50% of maximal relaxation induced by papaverine (200 μM), contracted with 1 μM phenylephrine
Description: Aortic ring preparations from SHR are suspended in buffered physiological saline and induced to contract by addition of 1 μM phenylephrine, a selective α1 -adrenergic agonist. When a sustained contraction is obtained, the test compound is added cumulatively in ascending concentrations beginning at 1 μM. At the end of the addition of the test compound, a 200 μM concentration of papaverine is added to the organ bath for induction of a 100% vasodilator response. Percent relaxation by the test compound is expressed as a percent of maximal relaxation induced by papaverine. […] By this procedure, EC50 values for certain compounds of the invention were determined with the following results: […]

EC50 [2]	Molecule	MIC [1]	IC50 [1]
	7-Methoxy-1-methyl-1H-pyrazolo[3,4-b]quinoline-3-methanamine [Example 34]	15 µg/mL	
31 µM	COc1ccc2nc3[nH]nc(N)c3cc2c1 [1(d), 6-Methoxy-1H-pyrazolo[3,4-b]quinolin-3-amine]		1.5 µg/mL (≈ 7 µM)
26 µM	Nc1n[nH]c2nc3ccccc3cc12 [2(d), 1H-Pyrazolo[3,4-b]quinolin-3-amine]		
21 µM	COc1ccc2cc3c(N)n[nH]c3nc2c1 [3(d), 7-Methoxy-1H-pyrazolo[3,4-b]quinolin-3-amine]		4.3 µg/mL (≈ 20.1 µM)
18 µM	COc1cc2cc3c(N)n[nH]c3nc2cc1OC [4(d), 6,7-Dimethoxy-1H-pyrazolo[3,4-b]quinolin-3-amine]		
	CCOc1ccc2cc3c(N)n[nH]c3nc2c1 [5(d), 7-Ethoxy-1H-pyrazolo[3,4-b]quinolin-3-amine]		17 µg/mL (≈ 74.5 µM)
	COc1cccc2nc3[nH]nc(N)c3cc12 [6(d), 5-Methoxy-1H-pyrazolo[3,4-b]quinolin-3-amine]		13 µg/mL (≈ 60.7 µM)
43 µM	COc1ccc2cc3c(N)nn(C)c3nc2c1 [Example 7, 7-Methoxy-1-methyl-1H-pyrazolo[3,4-b]quinolin-3-amine]		6.4 µg/mL (≈ 28 µM)
	CCCn1nc(N)c2cc3ccc(OC)cc3nc21 [Example 9, 7-Methoxy-1H-1-propylpyrazolo[3,4-b]quinolin-3-amine]		5.3 µg/mL (≈ 20.7 µM)
	CCn1nc(N)c2cc3ccc(OC)cc3nc21 [Example 10, 1-Ethyl-7-methoxy-1H-pyrazolo[3,4-b]quinolin-3-amine]		7.8 µg/mL (≈ 32.2 µM)
	COc1ccc2cc3c(N)nn(-c4ccccc4)c3nc2c1 [Example 11, 7-Methoxy-1-phenyl-1H-pyrazolo[3,4-b]quinolin-3-amine]		19 µg/mL (≈ 65.4 µM)
57 µM	Cn1nc(N)c2cc3ccc(O)cc3nc21 [Example 12, 3-Amino-1-methyl-1H-pyrazolo[3,4-b]quinolin-7-ol]		
87 µM	Nc1n[nH]c2nc3cc(O)ccc3cc12 [Example 13, 3-Amino-1H-pyrazolo[3,4-b]quinolin-7-ol]		13 µg/mL (≈ 64.9 µM)
25 µM	Nc1n[nH]c2nc3ccc(O)cc3cc12 [Example 14, 3-Amino-1H-pyrazolo[3,4-b]quinolin-6-ol]		
	COc1ccc2cc3c(N)nn(CCN4CCOCC4)c3nc2c1 [Example 15, 7-Methoxy-1-[2-(4-morpholinyl)ethyl]-1H-pyrazolo[3,4-b]quinolin-3-amine]		44 µg/mL (≈ 134 µM)
40 µM	CCN(CC)CCn1nc(N)c2cc3cc(OC)ccc3nc21 [Example 16, 1-[2-(Diethylamino)ethyl]-6-methoxy-1H-pyrazolo[3,4-b]quinolin-3-amine]		
91 µM	COc1ccc2nc3c(cc2c1)c(N)nn3CCCN(C)C [Example 17, 1-[3-(Dimethylamino)propyl]-6-methoxy-1H-pyrazolo[3,4-b]quinolin-3-amine]		78 µg/mL (≈ 261 µM)
25 µM	COc1ccc2cc3c(N)nn(CCN(C)C)c3nc2c1 [Example 18, 1-[2-(Dimethylamino)ethyl]-7-methoxy-1H-pyrazolo[3,4-b]quinolin-3-amine]		12 µg/mL (≈ 42.1 µM)
71 µM	CCOC(=O)Cn1nc(N)c2cc3ccc(OC)cc3nc21 [Example 19, Ethyl 3-amino-7-methoxy-1H-pyrazolo[3,4-b]quinolin-1-acetate]		12 µg/mL (≈ 40 µM)
38 µM	COc1ccc2nc3c(cc2c1)c(N)nn3CCN(C)C [Example 21, 1-[2-(Dimethylamino)ethyl]-6-methoxy-1H-pyrazolo[3,4-b]quinolin-3-amine]		24 µg/mL (≈ 84.1 µM)

EC50 [2]	Molecule	MIC [1]	IC50 [1]
22 µM	CCN(CC)CCn1nc(N)c2cc3ccc(OC)cc3nc21 [Example 22, 1-[2-(Diethylamino)ethyl]-7-methoxy-1H-pyrazolo[3,4-b]quinolin-3-amine]		23 µg/mL (≈ 73.4 µM)
33 µM	CCN(CC)CCn1nc(N)c2cc3ccc(O)cc3nc21 [Example 23]		39 µg/mL (≈ 130 µM)
	CN(C)CCn1nc(N)c2cc3ccc(O)cc3nc21 [Example 24, 3-Amino-1-[2-(dimethylamino)ethyl]-1H-pyrazolo[3,4-b]quinolin-7-ol]		13 µg/mL (≈ 47.9 µM)
116 µM	COc1ccc2nc3c(cc2c1)c(N)nn3CC(=O)N(C)C [Example 25, 3-Amino-6-methoxy-N,N-dimethyl-1H-pyrazolo[3,4-b]quinolin-1-acetamide]		
	CNCCn1nc(N)c2cc3cc(OC)ccc3nc21 [Example 27, 1-[2-(Methylamino)ethyl]-6-methoxy-1H-pyrazolo[3,4-b]quinolin-3-amine]		13 µg/mL (≈ 47.9 µM)
70 µM	CCNC(=O)Cn1nc(N)c2cc3ccc(OC)cc3nc21 [Example 28, 3-Amino-7-methoxy-N-ethyl-1H-pyrazolo[3,4-b]quinolin-1-acetamide]		
	CCNCCn1nc(N)c2cc3ccc(OC)cc3nc21 [Example 29, 1-[2-(Ethylamino)ethyl]-7-methoxy-1H-pyrazolo[3,4-b]quinolin-3-amine]		6.7 µg/mL (≈ 23.5 µM)
	COc1ccc2cc3c(N)nn(CN(C)C)c3nc2c1 [Example 30, 1-[(Dimethylamino)methyl]-7-methoxy-1H-pyrazolo[3,4-b]quinolin-3-amine]		2.6 µg/mL (≈ 9.58 µM)
	COc1ccc2nc3c(cc2c1)c(Cl)nn3C [Example 31, 3-Chloro-6-methoxy-1-methyl-1H-pyrazolo[3,4-b]quinoline]		18 µg/mL (≈ 72.7 µM)
	COc1ccc2nc3c(cc2c1)c(C#N)nn3C [Example 33, 6-Methoxy-1-methyl-1H-pyrazolo[3,4-b]quinoline-3-carbonitrile]		42 µg/mL (≈ 176 µM)
9 µM	COc1ccc2nc3c(cc2c1)c(C(N)=O)nn3C [Example 35, 6-Methoxy-1-methyl-1H-pyrazolo[3,4-b]quinoline-3-carboxamide]		7 µg/mL (≈ 27.3 µM)
	COc1ccc2nc3c(cc2c1)c(Br)nn3CCN(C)C [Example 36, 3-Bromo-1-[2-(dimethylamino)ethyl]-6-methoxy-1H-pyrazolo[3,4-b]quinoline]		4.3 µg/mL (≈ 12.3 µM)
	COc1ccc2cc3c(Br)nn(CCN(C)C)c3nc2c1 [Example 37, 3-Bromo-1-[2-(dimethylamino)ethyl]-7-methoxy-1H-pyrazolo[3,4-b]quinoline]		0.97 µg/mL (≈ 2.78 µM)
	COc1ccc2cc3c(C#N)nn(CCN(C)C)c3nc2c1 [Example 38, 1[2-(Dimethylamino)ethyl]-7-methoxy-1H-pyrazolo[3,4-b]quinoline-3-carbonitrile]		0.82 µg/mL (≈ 2.78 µM)
	COC(=O)c1nn(CCN(C)C)c2nc3cc(OC)ccc3cc12 [Example 39, Methyl 1-[2-(dimethylamino)ethyl]-7-methoxy-1H-pyrazolo[3,4-b]quinoline-3-carboxylate]		2.3 µg/mL (≈ 7 µM)
	COc1ccc2cc3c(Cl)nn(CCN(C)C)c3nc2c1 [Example 40, 3-Chloro-1-(2-dimethylaminoethyl)-7-methoxy-1H-pyrazolo[3,4-b]quinoline]		0.67 µg/mL (≈ 2.2 µM)
	CNCCn1nc(Br)c2cc3ccc(OC)cc3nc21 [Example 41, 3-Bromo-7-methoxy-1-(2-methylaminoethyl)-1H-pyrazolo[3,4-b]quinoline]		0.72 µg/mL (≈ 2.15 µM)
	COc1ccc2cc3c(N)nn(CC(C)N(C)C)c3nc2c1 (stereo not drawn) [Example 44a, 1-[2-(dimethylamino)-2-methylethyl]-7-methoxy-1H-pyrazolo[3,4-b]quinolin-3-amine]		11 µg/mL (≈ 36.7 µM)
	COc1ccc2cc3c(Cl)nn(CC(C)N(C)C)c3nc2c1 (stereo not drawn) [Example 45, 3-Chloro-1-[2-(dimethylamino)-2-methylethyl]-7-methoxy-1H-pyrazolo[3,4-b]quinoline]		0.88 µg/mL (≈ 2.76 µM)
	CNC(C)Cn1nc(Cl)c2cc3ccc(OC)cc3nc21 (stereo not drawn) [Example 46, 3-Chloro-1-[2-(methylamino)-2-methylethyl]-7-methoxy-1H-pyrazolo[3,4-b]quinoline]		3.7 µg/mL (≈ 12.1 µM)
